Results reported in publication PMC7318222, “A Family of Water‐Immiscible, Dipolar Aprotic, Diamide Solvents from Succinic Acid” (Chemsuschem, 2020).

Key:
[1] = Miscibility with hexane; assay type: physicochemical; conditions: this work
[2] = Miscibility with water; assay type: physicochemical; conditions: this work

CN(C)C=O [DMF, N,N‐dimethylformamide]
Hexane misc. [1]: no^[a] | Water misc. [2]: yes^[a]
